# Reference: ChEMBL document CHEMBL1212888, “NMR spectroscopy and computational analysis of interaction between Serratia marcescens chitinase B and a dipeptide derived from natural-product cyclopentapeptide chitinase inhibitor argifin” (Bioorg Med Chem, 2010)
# Molecular target: T1, Chitinase B (Serratia marcescens, UniProt P11797)
# T1 sequence (P11797 whole entry): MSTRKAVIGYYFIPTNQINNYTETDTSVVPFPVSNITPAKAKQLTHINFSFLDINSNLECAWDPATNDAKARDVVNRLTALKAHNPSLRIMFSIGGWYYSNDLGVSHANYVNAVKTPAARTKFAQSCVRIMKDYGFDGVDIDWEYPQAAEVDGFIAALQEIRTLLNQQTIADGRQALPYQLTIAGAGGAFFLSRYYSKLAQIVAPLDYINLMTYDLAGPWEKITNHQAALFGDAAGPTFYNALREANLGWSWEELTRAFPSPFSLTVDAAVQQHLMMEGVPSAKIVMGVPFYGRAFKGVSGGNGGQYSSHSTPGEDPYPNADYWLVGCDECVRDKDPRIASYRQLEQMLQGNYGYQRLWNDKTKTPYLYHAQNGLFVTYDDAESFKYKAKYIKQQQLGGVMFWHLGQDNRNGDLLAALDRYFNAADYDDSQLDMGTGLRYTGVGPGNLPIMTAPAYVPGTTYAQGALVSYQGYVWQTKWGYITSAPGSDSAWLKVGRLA
# Assay: Inhibition of Serratia marcescens chitinase B
structure (smiles),measurement,value
CNC(=O)NC(=N)NCCC[C@@H]1NC(=O)[C@@H](C)NC(=O)C[C@@H](C(=O)O)NC(=O)C[C@@H](C(=O)O)NC(=O)[C@H](Cc2ccccc2)N(C)C1=O [ARGIFIN],Kd,33 µM
